Results taken from ChEMBL document CHEMBL4725392, “Orally Bioavailable Small-Molecule CD73 Inhibitor (OP-5244) Reverses Immunosuppression through Blockade of Adenosine Production” (J Med Chem, 2020).
Active and inactive are the calls of the source. The rule behind the calls is not given here.

Tests used:
[1] = target: T1, 5'-nucleotidase (Homo sapiens, UniProt P21589); experiment: Inhibition of CD73 in human CD8+ T-cells assessed as reduction in AMP-induced ADO expression preincubated for 15 mins followed by AMP addition and measured after 1 hr by LC-MS/MS analysis; format: tissue-based, CD8-positive T cell
T1 sequence (P21589 whole entry): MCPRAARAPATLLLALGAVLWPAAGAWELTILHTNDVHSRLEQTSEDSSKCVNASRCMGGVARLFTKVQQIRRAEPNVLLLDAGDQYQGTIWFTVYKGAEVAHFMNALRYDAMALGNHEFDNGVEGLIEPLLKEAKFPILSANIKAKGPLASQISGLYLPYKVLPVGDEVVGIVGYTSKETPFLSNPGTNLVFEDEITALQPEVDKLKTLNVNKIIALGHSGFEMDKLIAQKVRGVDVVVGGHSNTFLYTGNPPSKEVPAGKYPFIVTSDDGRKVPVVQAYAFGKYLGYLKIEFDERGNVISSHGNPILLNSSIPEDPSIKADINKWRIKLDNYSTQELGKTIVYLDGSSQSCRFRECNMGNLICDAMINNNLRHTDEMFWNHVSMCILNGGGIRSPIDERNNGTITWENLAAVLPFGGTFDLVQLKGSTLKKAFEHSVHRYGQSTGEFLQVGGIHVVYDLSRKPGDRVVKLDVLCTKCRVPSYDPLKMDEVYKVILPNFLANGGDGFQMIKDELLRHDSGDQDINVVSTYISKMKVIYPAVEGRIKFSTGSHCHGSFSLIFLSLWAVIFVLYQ

[2] = Cmax in rat at 10 mg/kg, po; format: ADME, organism-based; parameters: route oral, dose 10 mg/kg; settings: in vivo
[3] = target: T1, 5'-nucleotidase; experiment: Inhibition of human C-terminal His6-tagged CD73 expressed in CHO cells preincubated for 15 mins followed by AMP addition and measured after 10 mins by malachite green reagent based assay; format: cell-based
[4] = target: T1, 5'-nucleotidase; experiment: Inhibition of CD73 in human NCI-H1568 cells assessed as reduction in AMP-induced ADO expression preincubated for 15 mins followed by AMP addition and measured after 1 hr by LC-MS/MS analysis; format: cell-based
[5] = target: T2, 5'-nucleotidase (Mus musculus, UniProt Q61503); experiment: Inhibition of CD73 in mouse EMT6 cells assessed as reduction in AMP-induced ADO expression preincubated for 15 mins followed by AMP addition and measured after 1 hr by LC-MS/MS analysis; format: cell-based
T2 sequence (Q61503 whole entry): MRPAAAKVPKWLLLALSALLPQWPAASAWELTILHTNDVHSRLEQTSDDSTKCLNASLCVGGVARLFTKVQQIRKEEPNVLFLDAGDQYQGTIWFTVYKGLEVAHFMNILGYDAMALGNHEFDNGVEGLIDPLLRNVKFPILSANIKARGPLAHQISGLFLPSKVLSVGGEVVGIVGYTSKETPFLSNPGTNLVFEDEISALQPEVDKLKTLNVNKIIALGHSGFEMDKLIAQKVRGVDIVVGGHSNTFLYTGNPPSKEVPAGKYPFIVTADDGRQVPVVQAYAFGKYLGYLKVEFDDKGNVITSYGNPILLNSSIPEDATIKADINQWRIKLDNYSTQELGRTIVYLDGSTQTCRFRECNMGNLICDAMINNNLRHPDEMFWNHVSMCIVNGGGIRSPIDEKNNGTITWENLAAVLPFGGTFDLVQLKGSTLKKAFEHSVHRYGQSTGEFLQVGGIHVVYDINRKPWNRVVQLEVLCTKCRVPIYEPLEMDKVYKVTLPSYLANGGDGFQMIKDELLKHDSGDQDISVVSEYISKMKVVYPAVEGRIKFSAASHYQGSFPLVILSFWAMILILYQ

[6] = AUC infinity in mouse at 200 mg/kg, po; format: ADME, organism-based; parameters: route oral, time infinity, dose 200 mg/kg; settings: in vivo
[7] = Cmax in mouse at 200 mg/kg, po; format: ADME, organism-based; parameters: route oral, dose 200 mg/kg; settings: in vivo
[8] = Terminal half life in mouse at 200 mg/kg, po; format: ADME, organism-based; settings: in vivo, read-out: beta t1/2 (converted)
[9] = Clearance in rat at 0.2 mg/kg, iv; format: ADME, organism-based; settings: in vivo
[10] = Clearance in dog at 0.2 mg/kg, iv; format: ADME, organism-based, Canis lupus familiaris; settings: in vivo
[11] = Clearance in cynomolgus monkey at 0.2 mg/kg, iv; format: ADME, organism-based, Macaca fascicularis; settings: in vivo
[12] = AUC in rat at 0.2 mg/kg, iv; format: ADME, organism-based; parameters: dose 0.2 mg/kg; settings: in vivo
[13] = AUC in dog at 0.2 mg/kg, iv; format: ADME, organism-based, Canis lupus familiaris; parameters: dose 0.2 mg/kg; settings: in vivo
[14] = AUC in cynomolgus monkey at 0.2 mg/kg, iv; format: ADME, organism-based, Macaca fascicularis; parameters: dose 0.2 mg/kg; settings: in vivo
[15] = Volume of distribution at steady state in rat at 0.2 mg/kg, iv; format: ADME, organism-based; settings: in vivo, read-out: Vdss
[16] = Volume of distribution at steady state in dog at 0.2 mg/kg, iv; format: ADME, organism-based, Canis lupus familiaris; settings: in vivo, read-out: Vdss
[17] = Volume of distribution at steady state in cynomolgus monkey at 0.2 mg/kg, iv; format: ADME, organism-based, Macaca fascicularis; settings: in vivo, read-out: Vdss
[18] = Terminal half life in rat at 0.2 mg/kg, iv; format: ADME, organism-based; settings: in vivo, read-out: beta t1/2 (converted)
[19] = Terminal half life in dog at 0.2 mg/kg, iv; format: ADME, organism-based, Canis lupus familiaris; settings: in vivo, read-out: beta t1/2 (converted)
[20] = Terminal half life in cynomolgus monkey at 0.2 mg/kg, iv; format: ADME, organism-based, Macaca fascicularis; settings: in vivo, read-out: beta t1/2 (converted)
[21] = Cmax in dog at 10 mg/kg, po; format: ADME, organism-based, Canis lupus familiaris; parameters: route oral, dose 10 mg/kg; settings: in vivo
[22] = Cmax in cynomolgus monkey at 10 mg/kg, po; format: ADME, organism-based, Macaca fascicularis; parameters: route oral, dose 10 mg/kg; settings: in vivo
[23] = AUC in rat at 10 mg/kg, po; format: ADME, organism-based; parameters: dose 10 mg/kg; settings: in vivo
[24] = AUC in dog at 10 mg/kg, po; format: ADME, organism-based, Canis lupus familiaris; parameters: dose 10 mg/kg; settings: in vivo
[25] = AUC in cynomolgus monkey at 10 mg/kg, po; format: ADME, organism-based, Macaca fascicularis; parameters: dose 10 mg/kg; settings: in vivo
[26] = target: T1, 5'-nucleotidase; experiment: Inhibition of CD73 in CD3/CD28/CD2 activated human CD8+ T-cells assessed as increase in T cell proliferation at 4.1 to 1000 nM preincubated for 15 mins followed by AMP addition and measured after 96 hr by flow cytometric analysis; format: tissue-based; settings: CD8-positive T cell, dose nM 4.1-1000, time 15.0 min
[27] = target: T1, 5'-nucleotidase; experiment: Inhibition of CD73 in CD3/CD28/CD2 activated human CD8+ T-cells assessed as increase in IFNgamma protein expression at 4.1 to 1000 nM preincubated for 15 mins followed by AMP addition and measured after 96 hr by ELISA; format: tissue-based; settings: CD8-positive T cell, dose nM 4.1-1000, time 15.0 min
[28] = target: T1, 5'-nucleotidase; experiment: Inhibition of CD73 in CD3/CD28/CD2 activated human CD8+ T-cells assessed as increase in TNFalpha protein expression at 4.1 to 1000 nM preincubated for 15 mins followed by AMP addition and measured after 96 hr by ELISA; format: tissue-based; settings: CD8-positive T cell, dose nM 4.1-1000, time 15.0 min
[29] = target: T1, 5'-nucleotidase; experiment: Inhibition of CD73 in human NCI-H1568 cells assessed as reduction in AMP-induced ADO expression preincubated for 15 mins followed by AMP addition and measured after 1 hr by LC-MS/MS analysis relative to control; format: cell-based
[30] = target: T3, 5'-nucleotidase (Mus musculus) (UniProt Q61503); experiment: Inhibition of CD73 in mouse EMT6 cells assessed as reduction in AMP-induced ADO expression preincubated for 15 mins followed by AMP addition and measured after 1 hr by LC-MS/MS analysis relative to control; format: cell-based
T3 sequence (whole entry): T2 sequence (Q61503 whole entry)

[31] = target: T1, 5'-nucleotidase; experiment: Inhibition of CD73 in human CD8+ T-cells assessed as reduction in AMP-induced ADO expression preincubated for 15 mins followed by AMP addition and measured after 1 hr by LC-MS/MS analysis relative to control; format: tissue-based; settings: CD8-positive T cell
[32] = target: T3, 5'-nucleotidase (Mus musculus); experiment: Inhibition of CD73 in AMP-induced mouse E.G7-OVA cells incubated for 60 mins by Wachstein-Meisel lead phosphate method; format: cell-based; settings: dose nM 10-100, time 60.0 min
[33] = target: T3, 5'-nucleotidase (Mus musculus); experiment: Inhibition of CD73 in AMP-induced mouse E.G7-OVA cells at 10 to 100 nM incubated for 60 mins by Wachstein-Meisel lead phosphate method; format: cell-based; settings: dose nM 10-100, time 60.0 min
[34] = test system: EMT6; experiment: Antitumor activity against mouse EMT6 cells implanted in BALB/c mouse assessed as tumour growth inhibition at 15 mg/kg, sc and measured on day 13; format: functional, organism-based; settings: time 13.0 day
[35] = test system: EMT6; experiment: Antitumor activity against mouse EMT6 cells implanted in BALB/c mouse assessed as decrease in ADO/AMP ratio at 15 mg/kg, sc and measured on day 13 relative to control; format: functional; parameters: scale not given: the % may be the effect or the level left; settings: time 13 day
[36] = test system: EMT6; experiment: Antitumor activity against mouse EMT6 cells implanted in BALB/c mouse assessed as decrease in ADO expression at 15 mg/kg, sc and measured on day 13 relative to control; format: functional; parameters: scale not given: the % may be the effect or the level left; settings: time 13 day
[37] = test system: E.G7-OVA; experiment: Antitumour activity against mouse E.G7-OVA cells implanted in C57BL/6 mouse assessed as increase in CD8+/Treg ratio at 150 mg/kg, po BID for 16 days; format: functional, organism-based; settings: time 16.0 day
[38] = test system: E.G7-OVA; experiment: Antitumour activity against mouse E.G7-OVA cells implanted in C57BL/6 mouse assessed as increase in percentage of CD8+ T cells in total CD45+ leukocytes at 150 mg/kg, po BID for 16 days; format: functional, organism-based; settings: time 16.0 day
[39] = target: Cytochrome P450 3A4 (Homo sapiens, UniProt P08684); experiment: Inhibition of CYP3A4 (unknown origin); format: ADME
Chain of Cytochrome P450 3A4 (P08684 whole entry): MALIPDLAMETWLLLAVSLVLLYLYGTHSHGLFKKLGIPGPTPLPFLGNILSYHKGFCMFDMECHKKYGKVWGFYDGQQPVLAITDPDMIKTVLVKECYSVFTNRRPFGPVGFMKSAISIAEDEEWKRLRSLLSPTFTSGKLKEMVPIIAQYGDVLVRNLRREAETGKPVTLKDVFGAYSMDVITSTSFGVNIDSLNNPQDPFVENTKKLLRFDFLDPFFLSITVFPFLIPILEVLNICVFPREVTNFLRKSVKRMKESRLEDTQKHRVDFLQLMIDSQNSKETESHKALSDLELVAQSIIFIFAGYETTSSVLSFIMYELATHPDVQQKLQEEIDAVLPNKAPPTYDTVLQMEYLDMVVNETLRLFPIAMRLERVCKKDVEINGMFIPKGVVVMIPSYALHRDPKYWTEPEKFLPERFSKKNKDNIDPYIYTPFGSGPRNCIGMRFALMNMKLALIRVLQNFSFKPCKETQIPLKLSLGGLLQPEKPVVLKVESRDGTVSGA

[40] = target: T4, Cytochrome P450 2C8 (Homo sapiens, UniProt P10632); experiment: Inhibition of CYP2C8 (unknown origin); format: ADME
T4 sequence (P10632 whole entry): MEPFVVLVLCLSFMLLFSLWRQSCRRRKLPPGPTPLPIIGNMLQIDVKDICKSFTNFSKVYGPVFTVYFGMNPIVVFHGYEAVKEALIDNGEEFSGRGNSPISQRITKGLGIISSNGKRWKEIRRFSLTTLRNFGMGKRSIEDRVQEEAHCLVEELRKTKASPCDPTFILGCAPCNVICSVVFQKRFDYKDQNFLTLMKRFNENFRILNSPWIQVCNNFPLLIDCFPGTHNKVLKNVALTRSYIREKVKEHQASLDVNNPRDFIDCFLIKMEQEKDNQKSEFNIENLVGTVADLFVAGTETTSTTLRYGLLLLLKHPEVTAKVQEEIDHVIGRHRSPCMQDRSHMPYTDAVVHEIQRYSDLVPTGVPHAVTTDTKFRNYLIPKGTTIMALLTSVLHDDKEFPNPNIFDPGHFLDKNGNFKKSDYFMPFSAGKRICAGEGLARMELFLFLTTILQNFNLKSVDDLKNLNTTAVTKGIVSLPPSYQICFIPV

[41] = target: Cytochrome P450 2C9 (Homo sapiens, UniProt P11712); experiment: Inhibition of CYP2C9 (unknown origin); format: ADME
Chain of Cytochrome P450 2C9 (P11712 whole entry): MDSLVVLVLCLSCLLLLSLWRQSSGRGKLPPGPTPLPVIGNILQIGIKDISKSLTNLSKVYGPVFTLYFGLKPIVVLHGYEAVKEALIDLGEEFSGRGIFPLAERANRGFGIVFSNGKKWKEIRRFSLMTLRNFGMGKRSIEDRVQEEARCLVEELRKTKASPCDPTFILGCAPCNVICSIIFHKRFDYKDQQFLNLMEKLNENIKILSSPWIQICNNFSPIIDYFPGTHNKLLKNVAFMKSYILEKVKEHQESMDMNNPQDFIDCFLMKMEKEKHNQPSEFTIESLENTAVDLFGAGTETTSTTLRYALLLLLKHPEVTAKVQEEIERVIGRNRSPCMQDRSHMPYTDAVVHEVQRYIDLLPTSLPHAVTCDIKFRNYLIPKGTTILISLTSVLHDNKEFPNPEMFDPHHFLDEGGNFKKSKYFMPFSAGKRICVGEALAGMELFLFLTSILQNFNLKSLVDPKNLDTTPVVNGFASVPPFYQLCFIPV

Which results are given for COC[C@](CO)(OC[C@H]1O[C@@H](n2ncc3c(NC4CCCC4)nc(Cl)nc32)[C@H](O)[C@@H]1O)P(=O)(O)O?
EC50 [1]: 0.22 nM; Cmax [2]: 820 nM; IC50 [3]: 0.25 nM; EC50 [4]: 0.79 nM; EC50 [5]: 14 nM; AUC(0-inf) [6]: 45.1 µM·h; Cmax [7]: 42200 nM; half-life [8]: 3.3 h; clearance [9]: 3 mL/min/kg; clearance [10]: 20.3 mL/min/kg; clearance [11]: 0.833 mL/min/kg; AUC [12]: 2.11 µM·h; AUC [13]: 0.31 µM·h; AUC [14]: 7.72 µM·h; Vd [15]: 0.22 L/kg; Vd [16]: 0.29 L/kg; Vd [17]: 0.1 L/kg; half-life [18]: 8.5 h; half-life [19]: 0.82 h; half-life [20]: 4.6 h; Cmax [21]: 1250 nM; Cmax [22]: 1720 nM; AUC [23]: 1.96 µM·h; AUC [24]: 1.75 µM·h; AUC [25]: 14.2 µM·h; inhibition [26]: Active; inhibition [27]: Active; inhibition [28]: Active; inhibition [29]: 100%; inhibition [30]: 100%; inhibition [31]: 100%; inhibition [32]: Dose-dependent effect; inhibition [33]: Active; Activity [34]: Active; Activity [35]: 95%; Activity [36]: 100%; Activity [37]: Active; Activity [38]: Active; IC50 [39]: > 20000 nM; IC50 [40]: > 20000 nM; IC50 [41]: > 20000 nM
